Values of other authors, collected in patent publication US9181529B2, “Titration of differentiation medium components” (Cellular Dynamics International, Inc., priority 2010, dated 2015).

Experiments:
[1] = tested on: pluripotent stem cell-derived cardiomyocytes
[2] = tested on: ROCK2; details: ATP-competitive, read-out: IC50 ROCK1/ROCK2

Row | Structure (SMILES) | chronotropic effect [1] | further results
1 | CC(C)NCC(O)c1ccc(O)c(O)c1 (stereo not shown) [isoprenaline] | positive chronotropic effect | –
2 | CNC[C@H](O)c1cccc(O)c1 [phenylephrine] | positive chronotropic effect | –
4 | COc1ccc([C@@H]2Sc3ccccc3N(CCN(C)C)C(=O)[C@@H]2OC(C)=O)cc1 [diltiazem] | – | contractile activity [1]: inhibits contractile activity in a dose-dependent manner
